Like-named read-outs stand apart in the source and are kept apart here.

The test system of this experiment is 786-O (renal cell carcinoma) cells. Nature of the experiment: Cell viability (CellTiter Glo) assay, inhibition of 786-O cell proliferation. In kind it is cell-based. The settings on record: read-out: IC50, inhibition of 786-O cell proliferation. For orientation: ATP-based viability assays read luminescence as a measure of living cells.
Setting [1] is: Homo sapiens, 786-0, 786-O cells, 72 hours, CellTiter Glo.

Regarding `CNc1nc(COC(=N)N2CCC[C@H]2C(F)(F)F)nc2c1C1(CCCC1)C(=O)N2c1cnc(N2C[C@@H](C)O[C@@H](C)C2)nc1` (relative stereo) [Compound E103], under setting [1], the IC50 lay within 100 to 500 nM.

Take `CCCC[C@H]1Cc2cc(OC)ccc2[C@H](c2ccc(F)cc2)N1C(=O)CO/C(=N\CCCN(C)C)NCC` [Compound A3]: the IC50 under setting [1] is above 5000 nM.

Consider `CCCC[C@H]1Cc2cc(OC)ccc2[C@H](c2ccc(F)cc2)N1C(=O)CO/C(=N\C(C)C)NC(C)C` [Compound A4], for which the IC50 under setting [1] is 500 to 5000 nM.

Consider `CCCCC1Cc2c([nH]c3ccccc23)C(c2ccc(NC34CC5CC(CC(C5)C3)C4)cc2)N1C(=O)CO/C(=N\C(C)C)NC(C)C` (centres unmarked) [Compound B1], for which the IC50 under setting [1] is above 5000 nM.

Take `CCCCC1Cc2c([nH]c3ccccc23)C(c2ccc(F)cc2)N1C(=O)COC(=N)N1CCN(CC)C(=O)C12CC2` (centres unmarked) [Compound B2]: the IC50 under setting [1] lay within 500 to 5000 nM.

On to `N=C(OCc1ncc2c(n1)N(c1ccc(Oc3ccccc3)cc1)C(=O)CC2)N1CCC(F)(F)CC1` [Compound C1], for which the IC50 under setting [1] is above 5000 nM.

`CN(C)C(=N)OCc1nc(NC2CCCCC2)c2cc[nH]c2n1` [Compound D9]: the IC50 (Homo sapiens, 786-0, 72 h) lay in the range of 500 to 5000 nM.

Regarding `CN(C)C(=N)OCc1ncc2c(n1)c(-c1ccc(Oc3ccccc3)cc1)nn2C` [Compound D11], the IC50 (Homo sapiens, 786-0, 72 h) is 500 to 5000 nM.

In the case of `CC1(C)CN(c2ccc(Oc3ccccc3)cc2)c2nc(COC(=N)NC34CC5CC(CC(C5)C3)C4)nc(N)c21` [Compound E3], the IC50 under setting [1] lay in the range of 100 to 500 nM.

As to `COc1ccc(CNc2nc(COC(=N)N3CCC(F)(F)CC3)nc3c2C(C)(C)CN3c2ccc(Oc3ccccc3)cc2)cc1` [Compound E6], the IC50 under setting [1] was 100 to 500 nM.

With `CNc1nc(COC(=N)N2CCC(F)(F)CC2)nc2c1C(C)(C)CN2c1ccc(Oc2ccccc2)cc1` [Compound E7, (5,5-dimethyl-4-(methylamino)-7-(4-phenoxyphenyl)-6,7-dihydro-5H-pyrrolo[2,3-d]pyrimidin-2-yl)methyl 4,4-difluoropiperidine-1-carbimidate], the IC50 under setting [1] is below 100 nM.

For `CCN(CC(F)(F)F)C(=N)OCc1ncc2c(n1)N(c1ccc(Oc3ccccc3)cc1)CC2(C)C` [Compound E9], the IC50 under setting [1] was below 100 nM.

Turning to `CC1(C)CN(c2ccc(Oc3ccccc3)cc2)c2nc(COC(=N)N3CCCCC3C(F)(F)F)ncc21` (centres unmarked) [Compound E10], the IC50 under setting [1] is below 100 nM.

For `CC1(C)CN(c2ccc(Oc3ccccc3)cc2)c2nc(COC(=N)N3CCCC34COC4)ncc21` [Compound E11], the IC50 under setting [1] was 500 to 5000 nM.

In the case of `N=C(OCc1ncc2c(n1)N(c1ccc(Oc3ccccc3)cc1)C(=O)C21CC1)N1CCCCC1C(F)(F)F` (centres unmarked) [Compound E12], the IC50 under setting [1] is 100 to 500 nM.

On to `CC(C)N(CC(F)(F)F)C(=N)OCc1ncc2c(n1)N(c1ccc(OC3CCCCC3)nc1)C(=O)C21CC1` [Compound E13], for which the IC50 under setting [1] was in the range of 100 to 500 nM.

As to `CNc1nc(COC(=N)N2CCCC2C(F)(F)F)nc2c1C(C)(C)CN2c1ccc(N2CCOCC2)cc1OC` (centres unmarked) [Compound E15], the IC50 under setting [1] is below 100 nM.

With `COc1cc(N2CCOCC2)ccc1N1CC(C)(C)c2c(NCC(F)(F)F)nc(COC(=N)N3CCC[C@@H]3C(F)(F)F)nc21` [Compound E16], the IC50 under setting [1] is below 100 nM.

As to `COc1cc(N2CCOCC2)ccc1N1CC(C)(C)c2c(OCC(F)(F)F)nc(COC(=N)N3CCC[C@@H]3C(F)(F)F)nc21` [Compound E17], for the setting “Homo sapiens, 786-0, 72 h”, the IC50 is below 100 nM.

For `CC1(C)CN(c2ccc(N3CCOCC3)cc2)c2nc(COC(=N)N3CCCC3C(F)(F)F)nc(N)c21` (centres unmarked) [Compound E18], under setting [1], the IC50 was below 100 nM.

Consider `CNc1nc(COC(=N)N2CCC[C@@H]2C(F)(F)F)nc2c1C(C)(C)CN2c1ccc(N2C[C@@H](C)O[C@@H](C)C2)nc1` [Compound E19], for which the IC50 under setting [1] is below 100 nM.

For the compound `C[C@@H]1CN(c2ccc(N3CC(C)(C)c4c(N)nc(COC(=N)N5CCC[C@@H]5C(F)(F)F)nc43)cn2)C[C@H](C)O1` [Compound E20], the IC50 under setting [1] is below 100 nM.

With `C[C@@H]1CN(c2ccc(N3CC4(CCC4)c4c(NCC(F)(F)F)nc(COC(=N)N5CCC[C@@H]5C(F)(F)F)nc43)cn2)C[C@H](C)O1` [Compound E21], under setting [1], the IC50 is below 100 nM.

`CNc1nc(COC(=N)N2CCCC2C(F)(F)F)nc2c1C(C)(C)C(=O)N2c1ccc(N2CCC(F)(F)CC2)nc1` (centres unmarked) [Compound E22]: the IC50 under setting [1] is below 100 nM.

For `CNc1nc(COC(=N)N2CCCC2C(F)(F)F)nc2c1C(C)(C)C(=O)N2c1ccc(N2C[C@@H](C)O[C@@H](C)C2)cc1` (some centres unmarked) [Compound E23], the IC50 under setting [1] was below 100 nM.

With `CC#CC(C)(C)N(C)C(=N)OCc1nc(N)c2c(n1)N(c1ccc(N3CCOCC3)cc1)C(=O)C2(C)C` [Compound E27], the IC50 under setting [1] was 500 to 5000 nM.

Turning to `CNc1nc(COC(=N)N2CCCC2C(F)(F)F)nc2c1C(C)(C)C(=O)N2c1ccccc1Oc1ccccc1F` (centres unmarked) [Compound E29], the IC50 (Homo sapiens, 786-0, 72 h) was below 100 nM.

On to `CNc1nc(COC(=N)N2CCC[C@@H]2C(F)(F)F)nc2c1C(C)(C)C(=O)N2c1cc(F)c2c(cnn2C(C)C)c1` [Compound E31], for which, under setting [1], the IC50 is below 100 nM.

As for `CNc1nc(COC(=N)N2CCC[C@@H]2C(F)(F)F)nc2c1C(C)(C)C(=O)N2c1cc(F)c2c(c1)nc(C)n2C(C)C` [Compound E32], the IC50 (786-O cells, 72 hours, CellTiter Glo) is below 100 nM.

In the case of `C[C@@H]1CN(c2ccc(N3C(=O)C4(CCC4)c4c(N)nc(COC(=N)N5CCC[C@@H]5C(F)(F)F)nc43)cn2)C[C@H](C)O1` [Compound E33], the IC50 under setting [1] was below 100 nM.

As for `C[C@@H]1C[C@H](C)CN(c2ncc(N3C(=O)C(C)(C)c4c(N)nc(COC(=N)N5CCC[C@@H]5C(F)(F)F)nc43)cc2F)C1` [Compound E34], the IC50 under setting [1] is below 100 nM.

On to `C[C@@H]1C[C@H](C)CN(c2ccc(N3C(=O)C(C)(C)c4c(N)nc(COC(=N)N5CCC[C@@H]5C(F)(F)F)nc43)cc2F)C1` [Compound E35], for which, under setting [1], the IC50 was below 100 nM.

`CNc1nc(COC(=N)N2CCC[C@@H]2C(F)(F)F)nc2c1C(C)(C)C(=O)N2c1cnc(N2C[C@@H](C)O[C@@H](C)C2)c(F)c1` [Compound E36]: under setting [1], the IC50 was below 100 nM.

For the compound `C[C@@H]1CN(c2ncc(N3C(=O)C(C)(C)c4c(N)nc(COC(=N)N5CCC[C@@H]5C(F)(F)F)nc43)cc2F)C[C@H](C)O1` [Compound E37], under setting [1], the IC50 is below 100 nM.

Consider `C[C@@H]1CN(c2ccc(N3C(=O)C(C)(C)c4c(NCC(F)(F)F)nc(COC(=N)N5CCC[C@@H]5C(F)(F)F)nc43)cn2)C[C@H](C)O1` [Compound E38], for which the IC50 under setting [1] was below 100 nM.

In the case of `CNc1nc(COC(=N)N2CCC[C@@H]2C(F)(F)F)nc2c1C(C)(C)C(=O)N2c1ccc(N2C[C@H](C)C[C@H](C)C2)c(F)c1` [Compound E39], under setting [1], the IC50 is below 100 nM.

Regarding `CNc1nc(COC(=N)N2CC(F)(F)C[C@@H]2C)nc2c1C(C)(C)C(=O)N2c1ccc(N2CCOCC2)cc1` [Compound E41], the IC50 under setting [1] is 100 to 500 nM.

Turning to `CNc1nc(COC(=N)N2CC(F)(F)C[C@H]2C)nc2c1C(C)(C)C(=O)N2c1ccc(N2CCOCC2)cc1` [Compound E42], the IC50 under setting [1] lay in the range of 100 to 500 nM.

As to `C[C@@H]1C[C@H](C)CN(c2ccc(N3C(=O)C(C)(C)c4c(NCC(F)(F)F)nc(COC(=N)N5CCC[C@@H]5C(F)(F)F)nc43)cc2F)C1` [Compound E43], the IC50 under setting [1] is below 100 nM.

With `C[C@@H]1CN(c2ccc(N3C(=O)C4(CCCC4)c4c(NCC(F)(F)F)nc(COC(=N)N5CCC[C@@H]5C(F)(F)F)nc43)cn2)C[C@H](C)O1` [Compound E44], under setting [1], the IC50 is below 100 nM.

Regarding `C[C@@H]1CN(c2ccc(N3C(=O)C4(CCCCC4)c4c(N)nc(COC(=N)N5CCC[C@@H]5C(F)(F)F)nc43)cn2)C[C@H](C)O1` [Compound E45], the IC50 under setting [1] was below 100 nM.

The values are drawn from patent US20250304571A1, “BIOLOGICALLY ACTIVE COMPOUNDS AND METHODS THEREOF” (Suzhou Keen Therapeutics Co., Ltd., priority 2022, published 2025).
